Source: ChEMBL document CHEMBL1201862, “PubChem BioAssay data set” (2004)
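Following 48 hours of exposure in 96-well plates, responses at five concentrations were used to interpolate endpoints linearly. Abbreviation: GI50, concentration required for 50% inhibition of growth.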 The source made the active and inactive calls. Rule as the data show it: active = GI50 up to about 1.1 µM and inactive = higher.

Columns and labels:
Experiment in all cases: NCI-60 cell line screen, 48 h
[1] = system: M19-MEL
[2] = system: HOP-18
[3] = system: TK-10
[4] = system: A549
[5] = system: SR
[6] = system: SNB-19
[7] = system: SK-MEL-28
[8] = system: UACC-62
[9] = system: NCI-H226
[10] = system: M14
[11] = system: U-251
[12] = system: A498
[13] = system: OVCAR-4
[14] = system: RXF 393
[15] = system: DMS-273
[16] = system: LOX IMVI
[17] = system: MCF7
[18] = system: T47D
[19] = system: MDA-MB-435
[20] = system: MDA-MB-231

Row | SMILES | GI50 [1] | GI50 [2] | GI50 [3] | GI50 [4] | GI50 [5] | GI50 [6] | GI50 [7] | GI50 [8] | GI50 [9] | GI50 [10] | GI50 [11] | GI50 [12] | GI50 [13] | GI50 [14] | GI50 [15] | GI50 [16] | GI50 [17] | GI50 [18] | GI50 [19] | GI50 [20]
1 | CCOC(=O)/C=C1\CCCC12OCCO2 | > 100 µM (inactive) | > 100 µM (inactive) | > 100 µM (inactive) | > 100 µM (inactive) | 25.8 µM (inactive) | > 100 µM (inactive) | > 100 µM (inactive) | > 100 µM (inactive) | > 100 µM (inactive) | > 100 µM (inactive) | > 100 µM (inactive) | > 100 µM (inactive) | > 100 µM (inactive) | > 100 µM (inactive) | 53.5 µM (inactive) | – | – | – | – | –
2 | COc1cc(/C=C2/C(=O)N(C(=O)OCC(C)C)C(Cc3cc(OC)c(OC)c(C)c3OC)C(=O)N2Cc2ccccc2)c(OC)c(C)c1OC (stereo not given) | > 100 µM (inactive) | > 100 µM (inactive) | > 100 µM (inactive) | > 100 µM (inactive) | 25.1 µM (inactive) | > 100 µM (inactive) | > 100 µM (inactive) | > 100 µM (inactive) | 2.56 µM (inactive) | 69.3 µM (inactive) | > 100 µM (inactive) | > 100 µM (inactive) | > 100 µM (inactive) | > 100 µM (inactive) | > 100 µM (inactive) | > 100 µM (inactive) | – | – | – | –
3 | CCOC(=O)c1csc(NC(=O)CN(C)C)n1 | – | – | > 100 µM (inactive) | > 100 µM (inactive) | > 100 µM (inactive) | > 100 µM (inactive) | > 100 µM (inactive) | > 100 µM (inactive) | > 100 µM (inactive) | > 100 µM (inactive) | > 100 µM (inactive) | > 100 µM (inactive) | > 100 µM (inactive) | > 100 µM (inactive) | – | > 100 µM (inactive) | > 100 µM (inactive) | > 100 µM (inactive) | > 100 µM (inactive) | > 100 µM (inactive)
4 | O=c1n(CC2CO2)c2ccccc2n1CC1CS1 (stereo not given) | > 100 µM (inactive) | – | > 100 µM (inactive) | > 100 µM (inactive) | 44.7 µM (inactive) | > 100 µM (inactive) | > 100 µM (inactive) | 49 µM (inactive) | > 100 µM (inactive) | > 100 µM (inactive) | – | – | > 100 µM (inactive) | 57 µM (inactive) | > 100 µM (inactive) | 71 µM (inactive) | – | – | – | –
5 | CC(=O)OCCOCNC(=S)N/N=C/c1cc(Br)cs1 | > 100 µM (inactive) | > 100 µM (inactive) | > 100 µM (inactive) | > 100 µM (inactive) | > 100 µM (inactive) | > 100 µM (inactive) | > 100 µM (inactive) | > 100 µM (inactive) | > 100 µM (inactive) | > 100 µM (inactive) | > 100 µM (inactive) | > 100 µM (inactive) | > 100 µM (inactive) | > 100 µM (inactive) | > 100 µM (inactive) | > 100 µM (inactive) | – | – | – | –
6 | NC1CCC2(O)c3ccccc3C2C1 (stereo not given) | > 100 µM (inactive) | > 100 µM (inactive) | > 100 µM (inactive) | > 100 µM (inactive) | > 100 µM (inactive) | > 100 µM (inactive) | > 100 µM (inactive) | > 100 µM (inactive) | > 100 µM (inactive) | > 100 µM (inactive) | > 100 µM (inactive) | – | > 100 µM (inactive) | > 100 µM (inactive) | > 100 µM (inactive) | > 100 µM (inactive) | – | – | – | –
7 | Cc1ccc(/N=N/c2c(C)nn(-c3ccccc3)c2-c2ccccc2)c(Br)c1 | 55.1 µM (inactive) | > 100 µM (inactive) | > 100 µM (inactive) | > 100 µM (inactive) | 6.21 µM (inactive) | > 100 µM (inactive) | > 100 µM (inactive) | 40 µM (inactive) | > 100 µM (inactive) | > 100 µM (inactive) | – | > 100 µM (inactive) | > 100 µM (inactive) | – | – | 37.2 µM (inactive) | – | – | – | –
8 | CCOc1ccc(C(C)c2cc3c(cc2OC)OCO3)cc1 (stereo not given) | – | 2.2 µM (inactive) | 0.353 µM (active) | 0.455 µM (active) | 0.0982 µM (active) | 0.561 µM (active) | – | 0.376 µM (active) | 0.207 µM (active) | 0.361 µM (active) | 0.38 µM (active) | – | > 100 µM (inactive) | 0.222 µM (active) | 0.245 µM (active) | 0.259 µM (active) | – | – | – | –
9 | C=C(C)C1CC2=C(O1)C(=O)c1ccccc1C2=O (stereo not drawn) [DEHYDROISO-ALPHA-LAPACHONE] | – | – | 23 µM (inactive) | 21 µM (inactive) | – | 29.8 µM (inactive) | 19 µM (inactive) | 16.1 µM (inactive) | > 10 µM (inactive) | 18.5 µM (inactive) | 16.5 µM (inactive) | – | 11.3 µM (inactive) | 18.9 µM (inactive) | 17.4 µM (inactive) | 9.18 µM (inactive) | – | – | – | –
